Laboratory results as given in article PMC6349845, “Overcoming NADPH product inhibition improves D-sorbitol conversion to L-sorbose” (Scientific Reports, 2019).

Assays:
GoSLDH [1] = biological target: T1, GoSLDH (Gluconobacter oxydans, UniProt Q9KWR5); test: steady-state inhibition kinetics, double-reciprocal plots; format: biochemical
T1 construct: codon-optimised synthetic gene in pET28a, expressed in E. coli BL21-CodonPlus(DE3)-RIL, purified (His-tag vector)
T1 sequence (Q9KWR5 1-485): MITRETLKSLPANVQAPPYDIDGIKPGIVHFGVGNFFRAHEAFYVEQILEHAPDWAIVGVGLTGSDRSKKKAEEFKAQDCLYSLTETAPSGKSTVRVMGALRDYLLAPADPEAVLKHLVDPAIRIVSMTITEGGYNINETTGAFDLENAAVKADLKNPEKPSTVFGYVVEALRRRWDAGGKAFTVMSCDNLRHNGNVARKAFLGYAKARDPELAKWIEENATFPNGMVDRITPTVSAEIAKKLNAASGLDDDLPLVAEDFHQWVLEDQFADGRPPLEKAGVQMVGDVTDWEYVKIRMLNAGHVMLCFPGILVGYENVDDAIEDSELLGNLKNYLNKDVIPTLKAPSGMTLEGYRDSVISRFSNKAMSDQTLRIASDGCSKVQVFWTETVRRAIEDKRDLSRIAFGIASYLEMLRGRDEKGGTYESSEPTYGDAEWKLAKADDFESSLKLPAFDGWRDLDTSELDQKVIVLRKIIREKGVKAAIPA

GoSLDH [2] = biological target: T1, GoSLDH; test: isothermal titration calorimetry; format: binding

Row | SMILES | Ki (GoSLDH [1]) [µM] | Kd (GoSLDH [2]) [µM]
1 | NC(=O)C1=CN([C@@H]2O[C@H](COP(=O)(O)OP(=O)(O)OC[C@H]3O[C@@H](n4cnc5c(N)ncnc54)[C@H](OP(=O)(O)O)[C@@H]3O)[C@@H](O)[C@H]2O)C=CC1 [NADPH] | 100 | 67.1
2 | NC(=O)c1ccc[n+]([C@@H]2O[C@H](COP(=O)(O)OP(=O)(O)OC[C@H]3O[C@@H](n4cnc5c(N)ncnc54)[C@H](OP(=O)(O)O)[C@@H]3O)[C@@H](O)[C@H]2O)c1 [NADP^+] |  | 89.3
